Experimental data taken from PMC5054527, “Mechanism of high affinity inhibition of the human urate transporter URAT1” (Scientific Reports, 2016).
Changes are numbered by the printed parent chain. Read-outs that look alike come from different tables or passages of the source.

Tests used:
Assay in all cases: URAT1 uric acid transport activity assay
Type in all cases: cell-based
[1] = biological target: T1, r-L29M rURAT1 point mutant (Rattus norvegicus, UniProt Q3ZAV1, L29M)
T1 sequence (Q3ZAV1 1-553 L29M): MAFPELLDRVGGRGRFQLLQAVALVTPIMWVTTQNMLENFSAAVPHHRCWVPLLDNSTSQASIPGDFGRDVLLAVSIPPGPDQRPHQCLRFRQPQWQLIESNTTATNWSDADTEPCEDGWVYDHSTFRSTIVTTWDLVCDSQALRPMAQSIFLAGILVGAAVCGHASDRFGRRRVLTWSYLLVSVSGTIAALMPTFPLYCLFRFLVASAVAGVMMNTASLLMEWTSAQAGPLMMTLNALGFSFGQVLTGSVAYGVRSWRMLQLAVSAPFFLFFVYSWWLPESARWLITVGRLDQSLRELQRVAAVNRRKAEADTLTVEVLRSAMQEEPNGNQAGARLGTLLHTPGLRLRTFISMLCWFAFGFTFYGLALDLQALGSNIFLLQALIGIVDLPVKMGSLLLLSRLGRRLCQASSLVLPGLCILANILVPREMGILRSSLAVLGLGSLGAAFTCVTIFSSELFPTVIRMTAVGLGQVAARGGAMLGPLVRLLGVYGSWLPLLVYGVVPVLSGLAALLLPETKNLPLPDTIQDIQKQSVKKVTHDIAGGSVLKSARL
Method in brief: (§1)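 Cells expressing site-directed rat URAT1 mutants were exposed to inhibitor dilutions for 5 minutes before radiolabelled uric acid (100 μM) was added for 10 minutes. Potency was derived by nonlinear regression of log inhibitor versus response.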

[2] = biological target: T2, r-N35S/M481I rURAT1 double point mutant (Rattus norvegicus, UniProt Q3ZAV1, M481I/N35S)
T2 construct: hURAT1 and rURAT1 are 553 amino acid proteins with 12 transmembrane segments; expressed in transfected cells; host or cells: HEK-293T
T2 sequence (Q3ZAV1 1-553 N35S/M481I): T1 sequence (Q3ZAV1 1-553 L29M) with M29L, N35S, M481I
Method in brief: as §1

[3] = biological target: T3, r-T32C rURAT1 point mutant (Rattus norvegicus, UniProt Q3ZAV1, T32C)
T3 sequence (Q3ZAV1 1-553 T32C): T1 sequence (Q3ZAV1 1-553 L29M) with M29L, T32C
Method in brief: as §1

CCc1oc2ccccc2c1C(=O)c1cc(Br)c(O)c(Br)c1 [benzbromarone]
IC50 [1]: 21 ± 3.3 µM | IC50 [2]: 9 ± 1.5 µM | IC50 [3]: 24 ± 4 µM

O=C(O)CSc1nnc(Br)n1-c1ccc(C2CC2)c2ccccc12 [lesinurad, 2-((5-bromo-4-(4-cyclopropylnaphthalen-1-yl)-4H-1,2,4-triazol-3-yl)thio)acetic acid]
IC50 ([1]; r-L29M, MES pH 5.5, 100 μM 14C-uric acid, read-out: IC50 (uric acid transport)): 77 ± 6.6 µM | IC50 ([2]; r-N35S/M481I, MES pH 5.5, 100 μM 14C-uric acid, read-out: IC50 (uric acid transport)): 29 ± 1.2 µM | IC50 ([3]; r-T32C, MES pH 5.5, 100 μM 14C-uric acid, read-out: IC50 (uric acid transport)): 73 ± 5.9 µM

O=C1C(CC[S+]([O-])c2ccccc2)C(=O)N(c2ccccc2)N1c1ccccc1 (stereo not drawn) [sulfinpyrazone]
IC50 ([1]; r-L29M, HEPES pH 7.3, 100 μM 14C-uric acid, read-out: IC50 (uric acid transport)): 495 ± 152 µM | IC50 ([2]; r-N35S/M481I, HEPES pH 7.3, 100 μM 14C-uric acid, read-out: IC50 (uric acid transport)): 176 ± 44 µM | IC50 ([3]; r-T32C, HEPES pH 7.3, 100 μM 14C-uric acid, read-out: IC50 (uric acid transport)): 691 ± 98 µM
